From US20250041311A1, “Compound For Treating or Preventing Vimentin-Mediated Diseases” (Aluda Pharmaceuticals, Inc., priority 2021, published 2025)
“Also recorded” adds a separate entry of the source.

Tests used:
[1] = system: Huh7-NC12 cells; assay: PrestoBlue cell viability of liver cancer cells; conditions: for cytotoxicity: 48 h, highest concentration 10,000 nM, high concentrations 3,160 and 10,000 nM; for survival rate: after two days of treatment; for toxicity to Huh7-NC12 cells: high concentrations (>3160 nM)
[2] = system: Huh7-NC12 cells; assay: Exosome release from liver cancer cells (luciferase exosome reporter, ExoHTP platform); format: cell-based; conditions: 48 h, luciferase activity of exosomes purified from supernatant
[3] = target: T1, vimentin (Homo sapiens, UniProt P08670); assay: Immunofluorescence microscopy of the vimentin intermediate filament network; format: cell-based; parameters: react with mouse anti-VIM antibody (Sigma, 1:200) at room temperature; endogenous in cells; host or cells: U87 human glioma cells; conditions: U87 cells treated with C50 for 24 h, confocal immunofluorescence
Protocol: (§1) Cell culture: Human cancer cell lines were obtained from the Institute of Cell Research, Chinese Academy of Sciences or ATCC. Cells were cultured in an incubator with 5% CO2 in RMPI1640 supplemented with 10% fetal bovine serum, 2 mM L-glutamine and 1× penicillin-streptomycin (100 IU/ml-100 μg/ml).
Immunofluorescence microscopy: Cells were cultured in 4-well coverslips, treated with DMSO or C50 for 24 h, fixed with 2% paraformaldehyde at 37° C. for 15 minutes, permeabilized in 0.2% Triton X-100 PBS at room temperature Wash for 15 min, wash 3 times with 0.05% Triton X-100 TBS, block with 10% normal goat serum in 0.05% Triton X-100 TBS, then react with mouse anti-VIM antibody (Sigma, 1:200) at room temperature Incubate for 3 h. Cells were washed 3 times with 0.05% Triton X-100 in PBS, and then incubated with Cy TM3-conjugated anti-mouse IgG antibody (Jackson, 1:300) for 1 h at room temperature. Nuclei were stained with DAPI for 5-10 min. Immunofluorescence was observed using a FV1000 (Olympus) confocal microscope.
Target sequence in this assay (P08670 2-466 limits assumed): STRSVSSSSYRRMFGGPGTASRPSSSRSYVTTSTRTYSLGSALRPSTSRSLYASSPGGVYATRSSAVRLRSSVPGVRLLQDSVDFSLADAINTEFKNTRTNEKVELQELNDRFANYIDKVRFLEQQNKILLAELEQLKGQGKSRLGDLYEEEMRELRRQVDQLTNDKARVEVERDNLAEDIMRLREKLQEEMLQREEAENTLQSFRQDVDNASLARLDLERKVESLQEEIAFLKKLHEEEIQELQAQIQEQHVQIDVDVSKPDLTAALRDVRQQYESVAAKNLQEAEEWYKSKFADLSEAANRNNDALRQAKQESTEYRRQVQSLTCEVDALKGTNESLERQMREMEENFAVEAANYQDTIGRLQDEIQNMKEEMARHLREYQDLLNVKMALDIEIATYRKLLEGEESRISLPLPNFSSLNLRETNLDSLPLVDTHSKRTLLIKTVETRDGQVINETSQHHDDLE

[4] = target: T2, GFAP (Homo sapiens, UniProt P14136); assay: Immunofluorescence microscopy of the GFAP network (specificity control); format: cell-based; conditions: U87 glioma cells treated with C50
T2 construct: endogenous in cells; host or cells: U87 human glioma cells
T2 sequence (P14136 whole entry): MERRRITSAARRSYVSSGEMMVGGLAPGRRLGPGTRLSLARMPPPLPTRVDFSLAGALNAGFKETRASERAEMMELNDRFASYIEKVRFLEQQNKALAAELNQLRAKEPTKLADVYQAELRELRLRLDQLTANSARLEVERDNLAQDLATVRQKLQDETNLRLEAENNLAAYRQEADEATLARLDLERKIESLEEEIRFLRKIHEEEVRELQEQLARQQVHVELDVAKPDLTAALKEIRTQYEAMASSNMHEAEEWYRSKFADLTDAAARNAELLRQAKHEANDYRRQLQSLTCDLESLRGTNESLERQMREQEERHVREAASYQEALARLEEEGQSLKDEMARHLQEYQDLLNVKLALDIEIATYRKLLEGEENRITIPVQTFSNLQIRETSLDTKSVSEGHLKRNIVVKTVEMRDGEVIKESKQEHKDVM

[5] = target: T1, vimentin; assay: Fluorescence recovery after photobleaching (FRAP) of GFP-vimentin in U87 cells; format: cell-based; parameters: expressed in transfected cells; host or cells: U87 human glioma cells, transient transfection; conditions: cells treated with C50 for 24 h, vs DMSO
Protocol: as §1
Target sequence in this assay (P08670 whole entry, species assumed): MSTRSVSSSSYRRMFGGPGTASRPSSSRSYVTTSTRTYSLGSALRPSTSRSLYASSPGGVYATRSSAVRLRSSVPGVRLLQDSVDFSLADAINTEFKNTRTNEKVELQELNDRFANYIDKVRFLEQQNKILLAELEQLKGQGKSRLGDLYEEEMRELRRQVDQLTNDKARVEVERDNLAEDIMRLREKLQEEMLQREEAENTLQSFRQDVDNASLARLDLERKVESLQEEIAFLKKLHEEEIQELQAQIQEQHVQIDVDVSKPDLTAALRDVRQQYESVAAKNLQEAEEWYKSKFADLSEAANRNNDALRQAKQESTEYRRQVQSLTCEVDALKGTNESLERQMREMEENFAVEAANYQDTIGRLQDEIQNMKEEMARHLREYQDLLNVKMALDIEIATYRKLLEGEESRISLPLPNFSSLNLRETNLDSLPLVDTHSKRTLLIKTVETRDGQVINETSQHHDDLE
Fluorescence recovery after photobleaching (FRAP): Cells were cultured on 4-well coverslips and transiently transfected with pEGFP-Vim expression vector using Lipofectamine 2000 (Invitrogen) following the manufacturer's instructions. Twenty-four h after transfection, cells were treated with DMSO or C50 for 24 h. FRAP experiments were performed using a confocal microscope system (Fluoview 1,000; Olympus). For photobleaching, the region of interest (ROI) was irradiated with 60% laser power (488 nm) for 2 s. Images were taken every 30 s for 5 min to monitor fluorescence recovery. Fluorescence intensities were corrected for sample background at each time point. After data collection, the fluorescence intensity of ROI was extracted by ImageJ software.

[6] = system: EAE mice; assay: MOG-induced experimental autoimmune encephalomyelitis (EAE) mouse model; format: in vivo; conditions: FTY720 1 mg/kg, oral once a day, vs vehicle

SMILES	cytotoxicity [1]	survival rate [1]	toxicity to Huh7-NC12 cells [1]	inhibition of exosome release [2]	further results
O=C(Nc1ccc(F)cc1)Nc1ccc(Nc2nc(/C=C/c3ccc(Cl)cc3)nc(N3CCOCC3)n2)cc1 [Compound C45]	not cytotoxic	about 90%	not toxic	stronger inhibitory effects than GW4869; also recorded: effectively inhibit the release of exosomes	
O=C(Nc1ccc(Cl)cc1)Nc1ccc(Nc2nc(/C=C/c3ccccc3)nc(N3CCOCC3)n2)cc1 [Compound C50]					reorganization of the vimentin network [3]: significant reorganization of the vimentin network; structural changes of GFAP intermediate filament protein [4]: no structural changes; time required to recover fluorescence in the photobleached region [5]: significantly delayed
O=C(Nc1ccc(Nc2nc(/C=C/c3ccccc3)nc(N3CCOCC3)n2)cc1)Nc1ccnc(Cl)c1 [Compound C52M]	cytotoxic		cytotoxic	effectively inhibit the release of exosomes	
O=C(Nc1ccc(Nc2nc(/C=C/c3ccccc3)nc(N3CCOCC3)n2)cc1)Nc1ccc(C(=O)O)cc1 [Compound C69A]	not cytotoxic	about 90%	not toxic	stronger inhibitory effects than GW4869; also recorded: effectively inhibit the release of exosomes	
CN1CCN(C(=O)c2ccc(NC(=O)Nc3ccc(Nc4nc(/C=C/c5ccccc5)nc(N5CCOCC5)n4)cc3)cc2)CC1 [Compound C69B]	cytotoxic		cytotoxic	effectively inhibit the release of exosomes	
CCCCCCCCc1ccc(CCC(N)(CO)CO)cc1 [FTY720, reference compound]					animal weight loss [6]: reduced; clinical disease scores [6]: improved
O=C(/C=C/c1ccc(/C=C/C(=O)Nc2ccc(C3=NCCN3)cc2)cc1)Nc1ccc(C2=NCCN2)cc1 [GW4869, reference compound]	not cytotoxic	about 90%			
